Measured values reported in the NIST ThermoML archive (doi:10.1021/je900285w).

Key:
[1] = molar heat capacity at constant pressure; details: 101.33 kPa, Crystal
[2] = Crystal; DTA

OC[C@@H](O)[C@@H](O)[C@H](O)[C@H](O)CO [D-mannitol]
[1]
Details | molar heat capacity at constant pressure [J/K/mol]
205 K | 179.9
205.3 K | 180.9
208.4 K | 184.3
210 K | 184.6
211.46 K | 187.3
214.49 K | 189.7
215 K | 189.3
217.58 K | 192.1
220 K | 193.9
220.74 K | 195.4
223.88 K | 198.8
225 K | 198.6
226.99 K | 202.7
230 K | 203.2
230.03 K | 204.2
233.09 K | 207.6
235 K | 207.8
236.15 K | 210.5
239.22 K | 213.4
242.24 K | 215.7
245.33 K | 217.7
248.42 K | 220
251.42 K | 221.4
254.48 K | 223.2
257.61 K | 226.2
260.73 K | 228
263.83 K | 230.7
266.98 K | 233.6
270.15 K | 236.1
273.22 K | 239.5
276.28 K | 242.1
279.35 K | 245.4
282.41 K | 248.6
285.44 K | 251.6
288.45 K | 253.1
291.43 K | 256
294.39 K | 259
297.49 K | 260.6
300.61 K | 262.6
303.63 K | 264.9
306.66 K | 266.7
309.69 K | 268.4
312.78 K | 270.6
315.92 K | 272.9
319.06 K | 275.3
322.19 K | 277.9
325.3 K | 280.3
328.4 K | 282.6
331.49 K | 284.8
334.56 K | 286.1
337.63 K | 289
340.68 K | 291.4
343.78 K | 293.3
346.92 K | 295.5
350.05 K | 297.6
353.16 K | 299.6
356.26 K | 301.3
359.31 K | 303.7
362.51 K | 305.8
365.68 K | 308.4
368.86 K | 310.2
372.04 K | 311.9
375.21 K | 314
378.35 K | 316.7
381.44 K | 319
384.52 K | 320.9
387.64 K | 322.7

Details | Normal melting temperature [°C]
[2] | 164.10
